In assay [1] the target is T1, human 5-HT4 receptor S10-95 (CG-17) (Homo sapiens, UniProt Q13639).
T1 construct: Isolation of the full length human S10-95 cDNA clone; expressed in transfected cells; host or cells: COS-7 (transient, DEAE-dextran)
Description: [3H]5-HT displacement binding, human CG-17 clone. Conditions: for fold higher affinity for the human CG-17 clone: human CG-17 compared with rat clones; for activity at the CG-17 clone: [3H]5-HT displacement, up to concentration of 1 μM.
Description: (§2) Membrane Preparation: Membranes were prepared from transiently transfected COS-7 cells which were grown to 100% confluence. The cells were washed twice with phosphate-buffered saline, scraped from the culture dishes into 5 ml of ice-cold phosphate-buffered saline, and centrifuged at 200×g for 5 min at 4′. The pellet was resuspended in 2.5 ml of ice-cold Tris buffer (20 mM Tris -HCl, pH 7.4 at 23°, 5 mM EDTA), and homogenized by a Wheaton tissue grinder. The lysate was subsequently centrifuged at 200×g for 5 min at 4° to pellet large fragments which were discarded. The supernatant was collected and centrifuged at 40,000×g for 20 min at 4°. The pellet resulting from this centrifugation was washed once in ice-cold Tris wash buffer and finally resuspended in a final buffer containing 50 mM Tris-HCl and 0.5 mM EDTA, pH 7.4 at 23°. Membrane preparations were kept on ice and utilized within two hr for the radioligand binding assays.
(§3) The binding profile of drugs in competition experiments was established using 7 concentrations of compound. Incubation times were 30 min for both saturation and displacement studies. […] Binding was initiated by the addition of 50 μl membrane homogenates (10-20 μg). The reaction was terminated by rapid filtration through presoaked (0.5% polyethyleneimine) filters using 48R Cell Brandel Harvester (Gaithersburg, Md.). Subsequently, filters were washed for 5 sec with ice cold buffer (50 mM Tris HCL, pH 7.4 at 4° C.), dried and placed into vials containing 2.5 ml of Readi-Safe (Beckman, Fullerton, Calif.), and radioactivity was measured using a Beckman LS 6500C liquid scintillation counter. […] Binding data were analyzed by computer-assisted nonlinear regression analysis (Accufit and Accucomp, Lundon Software, Chagrin Falls, Ohio).

In assay [2] the target is T2, rat 5-HT4 (CG-7) receptor (Rattus norvegicus, UniProt Q62758).
T2 construct: two individual full length cDNA clones, S10-87 and S10-95, were isolated; expressed in transfected cells; host or cells: COS-7 (transient, DEAE-dextran)
Description: cAMP formation in intact Cos-7 cells transiently expressing CG-7. Format: cell-based. Conditions: for I. A. (intrinsic activity): CG-7, maximum response normalized to 5-HT maximum = 1.0; for effect on responses to 5-HT: CG-7, 10 μM. As to the method:
(§1) Measurement of cAMP Formation: The transiently transfected Cos-7 cells were incubated in Dulbecco's modified Eagle's medium, 5 mM theophylline, 10 mM Hepes (4-[2-Hydroxyethyl]-1-piperazineethanesulfonic acid), 10 μM pargyline, and/or appropriate concentrations of antagonists for 20 minutes at 37° C., 5% CO2. […] The media was aspirated and the reaction stopped by the addition of 100 mM HCl. The plates were stored at 4° C. for 15 minutes, centrifuged for 5 minutes, 500×g to pellet cellular debris, and the supernatant aliquotted and stored at −20° C. prior to assessment of cAMP formation by radioimmunoassay (cAMP Radioimmunoassay kit, Advanced Magnetics, Cambridge, Mass.). Radioactivity was quantitated using a Packard COBRA Auto Gamma Counter equipped with data reduction software. Functional data was fitted to a four parameter logistic equation to obtain response parameters (EC50, Emax, nH; Inplot, GraphPad, San Diego, Calif.).

The target of assay [3] is T3, rat 5-HT4 (CG-8) receptor (Rattus norvegicus, UniProt Q62758).
T3 construct: two individual full length cDNA clones, S10-87 and S10-95, were isolated; expressed in transfected cells; host or cells: COS-7 (transient, DEAE-dextran)
Description: cAMP formation in intact Cos-7 cells transiently expressing CG-8. Conditions: for I. A. (intrinsic activity): CG-8, maximum response normalized to 5-HT maximum = 1.0; for effect on responses to 5-HT: CG-8, 10 μM. The assay is classed as cell-based. As to the method:
as §1
In general terms: Changes in cAMP serve as a functional read-out for many G protein-coupled receptors.

Assay [4] deals with T4, rat 5-HT4 receptor S10-87 (CG-7) (Rattus norvegicus, UniProt Q62758). Description: [3H]5-HT radioligand binding (saturation and displacement), membranes of Cos-7 cells transiently expressing rat S10-87 (CG-7).
Description: as §2, §3
Assay [5] addresses T4, rat 5-HT4 receptor S10-87 (CG-7). Description: [3H]GR113808 binding (saturation and displacement), COS-7 membranes, rat clone CG-7. Further details: two individual full length cDNA clones, S10-87 and S10-95, were isolated; expressed in transfected cells; host or cells: COS-7 (transient, DEAE-dextran). Conditions: for effect on [3H]GR113808 binding: CG-7, concentrations up to 1 μM.
Description: as §2
(§4) The binding profile of drugs in competition experiments was established using 10-12 concentrations of compound. Incubation times were 30 min for both saturation and displacement studies.

Assay [6] addresses rat 5-HT4 receptor S10-95 (CG-8) (Rattus norvegicus, UniProt Q62758). Description: [3H]GR113808 binding (saturation and displacement), COS-7 membranes, rat clone CG-8. The note with it: for effect on [3H]GR113808 binding: CG-8, concentrations up to 1 μM. Further details: two individual full length cDNA clones, S10-87 and S10-95, were isolated; expressed in transfected cells; host or cells: COS-7 (transient, DEAE-dextran).
Description: as §2, §4

Assay [7] has as its target T5, 5-HT4 receptor, rat oesophagus (Rattus norvegicus, UniProt Q62758).
T5 construct: host or cells: rat oesophagus
Conditions: Grossmann et al., 1993; cited from earlier work.

Assay [8] concerns the target T1, human 5-HT4 receptor S10-95 (CG-17). Description: [3H]GR113808 saturation binding, human clone CG-17. The note with it: human CG-17, [3H]GR113808 0.005-[…], preliminary; read-out: Kd (saturation analysis).
Description: as §2, §4
Assay [9] concerns the target T6, 5-HT4 receptors, human brain (Homo sapiens, UniProt Q13639).
T6 construct: host or cells: human brain tissue
The note with it: Waeber et al. (1993); cited from earlier work.

Assay [10] has as its target T7, 5-HT4 receptors, guinea pig brain tissue (Cavia porcellus, UniProt O70528).
T7 construct: host or cells: guinea pig brain tissue
The note with it: Waeber et al., 1993, Grossmann et al.; cited from earlier work.

Setting [11] is: CG-7, stimulation of basal cAMP release.
[12] abbreviates: CG-8, stimulation of basal cAMP release.
Setting [13] is: Affinity constants (Ki), CG-7, 10 nM [3H]5-HT, mean ± SEM, >1000 estimated from one point displacement at 1 uM.
Where [14] appears, read: K1 (nM), CG-7, binding data using [3H]5-HT, Table 4.
[15] abbreviates: CG-7, 0.2-0.4 nM [3H]GR113808, single experiment, read-out: Affinity estimate K1.
Where [16] appears, read: CG-7, stimulation of basal cAMP release, means ± S.E.M. of three experiments, read-out: EC50.
The mark [17] stands for this setting: CG-8, stimulation of basal cAMP release, means ± S.E.M. of three experiments, read-out: EC50.
Where [18] appears, read: CG-8, 0.2-0.4 nM [3H]GR113808, single experiment, read-out: Affinity estimate K1.

Where two headings read alike, the source gives them in different places.

T4 sequence (Q62758 1-387 isoform Q62758-2): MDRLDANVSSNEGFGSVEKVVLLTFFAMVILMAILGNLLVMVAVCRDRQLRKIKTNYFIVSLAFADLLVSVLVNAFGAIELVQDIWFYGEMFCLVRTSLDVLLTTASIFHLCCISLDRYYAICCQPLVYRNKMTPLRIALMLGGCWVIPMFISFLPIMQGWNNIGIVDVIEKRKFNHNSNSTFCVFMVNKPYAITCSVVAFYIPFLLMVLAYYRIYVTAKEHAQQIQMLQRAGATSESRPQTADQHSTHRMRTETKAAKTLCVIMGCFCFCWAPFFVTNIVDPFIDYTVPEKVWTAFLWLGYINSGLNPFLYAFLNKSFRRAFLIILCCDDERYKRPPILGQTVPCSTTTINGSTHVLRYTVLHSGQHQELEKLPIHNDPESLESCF
T2 sequence (Q62758 1-387 isoform Q62758-2): as above
T1 sequence (Q13639 whole entry): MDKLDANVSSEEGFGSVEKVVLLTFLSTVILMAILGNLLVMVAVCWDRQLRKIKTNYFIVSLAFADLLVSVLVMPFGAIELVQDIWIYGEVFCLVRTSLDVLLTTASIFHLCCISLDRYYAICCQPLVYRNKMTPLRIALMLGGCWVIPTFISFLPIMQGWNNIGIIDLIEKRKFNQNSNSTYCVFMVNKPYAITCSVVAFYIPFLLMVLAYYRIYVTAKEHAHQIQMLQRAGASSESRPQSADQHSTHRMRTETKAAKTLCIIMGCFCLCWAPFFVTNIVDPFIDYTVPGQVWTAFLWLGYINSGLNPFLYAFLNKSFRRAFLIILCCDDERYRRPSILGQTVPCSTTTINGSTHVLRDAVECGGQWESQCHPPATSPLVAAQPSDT
T3 sequence (Q62758 whole entry): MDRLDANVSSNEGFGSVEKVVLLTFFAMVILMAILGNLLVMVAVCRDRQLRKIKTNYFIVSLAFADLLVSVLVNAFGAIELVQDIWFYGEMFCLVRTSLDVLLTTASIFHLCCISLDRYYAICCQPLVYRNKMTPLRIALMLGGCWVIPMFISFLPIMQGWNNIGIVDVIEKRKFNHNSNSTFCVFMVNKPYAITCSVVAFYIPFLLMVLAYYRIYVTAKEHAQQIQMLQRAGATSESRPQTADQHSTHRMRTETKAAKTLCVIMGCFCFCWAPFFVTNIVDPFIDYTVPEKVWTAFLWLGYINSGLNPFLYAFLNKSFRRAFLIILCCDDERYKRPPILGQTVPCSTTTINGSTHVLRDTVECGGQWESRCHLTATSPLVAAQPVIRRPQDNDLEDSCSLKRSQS
Chain of rat 5-HT4 receptor S10-95 (CG-8) (Q62758 whole entry): as above
T6 sequence (Q13639 whole entry): as the sequence (Q13639 whole entry) above
T7 sequence (O70528 whole entry): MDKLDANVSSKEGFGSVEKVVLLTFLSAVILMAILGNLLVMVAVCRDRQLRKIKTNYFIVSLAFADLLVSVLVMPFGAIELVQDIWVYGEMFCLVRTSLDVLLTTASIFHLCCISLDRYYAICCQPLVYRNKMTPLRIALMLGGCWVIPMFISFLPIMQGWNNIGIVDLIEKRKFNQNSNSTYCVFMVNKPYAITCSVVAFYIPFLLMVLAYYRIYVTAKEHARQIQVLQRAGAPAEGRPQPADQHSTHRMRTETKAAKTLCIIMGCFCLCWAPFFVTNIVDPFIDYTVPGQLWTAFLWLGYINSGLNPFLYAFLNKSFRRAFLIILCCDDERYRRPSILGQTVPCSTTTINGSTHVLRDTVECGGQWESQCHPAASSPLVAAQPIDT
T5 sequence (Q62758 whole entry): as the sequence (Q62758 whole entry) above

The term EC50 denotes the concentration needed to bring the measured effect to its halfway point. `NCCc1c[nH]c2ccc(C(N)=O)cc12` [5-CT, 5-carboxyamidotryptamine]: the Ki was > 10000 nM in assay [1]; > 1000 nM in assay [4] (setting [13]); > 1000 nM in assay [4] (setting [14]); > 1000 nM in assay [4] (Kf values estimated, S10, [3H]5-HT displacement, low affinity compounds); > 10000 nM in assay [5] (setting [15]); > 10000 nM in assay [6]. Further, the concentration for a half-maximal effect (EC50) in [2] came to 5570 nM; in [3], 1410 nM. The entries for the “I. A. (intrinsic activity)” value in assay [2] and in assay [3] were 0.85 and 1.2, respectively. In assay [2] (setting [11]), the “times less potent than 5-HT” value is recorded as ~200 fold. For the same compound, the “fold lower affinity than 5-HT” value in assay [3] (setting [12]) is “about 30 fold”.
Regarding `NCCc1c[nH]c2ccc(O)cc12` [5-HT, serotonin], the “stimulation of basal cAMP release” value in assay [2] (CG-7, 1 μM, single dose preliminary study) is listed as “about 30 fold”; in [3] (CG-8, 1 μM, single dose preliminary study) it was “about 30 fold”. In addition, the “maximum cAMP release” value in [2] (CG-7, FIG. 9) was found to be 0.42±0.03 pmol/ml/10 min; in [3] (CG-8, FIG. 10) it was 0.57±0.04 pmol/ml/10 min. Besides, the “I. A. (intrinsic activity)” value in assay [2] and in [3] was 1.0 in each case. The “BH (percentage of high affinity sites)” value was determined as 22% in assay [5] (CG-7, [3H]GR113808) and 24% in assay [6] (CG-8, [3H]GR113808). The “nH (Hill coefficient)” value is “nH = 0.62” in assay [5] (CG-7, [3H]GR113808) and “nH = 0.67” in [6] (CG-8, [3H]GR113808).
As to `COc1ccc2[nH]cc(CCN)c2c1` [5-MeOT, 5-methoxytryptamine], the Ki is 71 nM in assay [1]; 27.5 ± 5 nM in assay [4] (setting [13]); 27 ± 5 nM in assay [4] (setting [14]); 438 nM in assay [5] (Affinity estimate K1, CG-7, 0.2-0.4 nM [3H]GR113808, single experiment); 14 nM in assay [5] (KH (affinity for the high affinity state), CG-7, [3H]GR113808); 658 nM in [5] (read-out: KL (affinity for the low affinity state), CG-7, [3H]GR113808). The Ki in assay [6] came out at 518 nM. Also, the “fold less potent at the human CG-17” value in [1] (human CG-17 compared to the rat clones) was “approximately 3 fold”. In assay [1], the “fold higher affinity for the human CG-17 clone” value is recorded as ~5 fold. The EC50 turned out to be 21 ± 6 nM in [2] and 31 ± 13 nM in [3]. Also, the “I. A. (intrinsic activity)” value in assay [2] and in assay [3] was 1.0 each time. Besides, the “times less potent than 5-HT” value in [2] (setting [11]) was “approximately equipotent”. In addition, in [3] (setting [12]), the “fold lower affinity than 5-HT” value is “approximately equipotent”. In addition, in assay [5] (CG-7, [3H]GR113808), the “BH (percentage of high affinity sites)” value came out at 17%. Besides, the “nH (Hill coefficient)” value in assay [5] (CG-7, [3H]GR113808) was “nH = 0.57”; in assay [6] (CG-8, [3H]GR113808), “nH = 0.66”.
Consider `CCCN(CCC)C1CCc2cccc(O)c2C1` (centres unmarked) [8-OH-DPAT, 8-hydroxy-2-(di-n-propylamino)tetralin], for which the Ki in assay [1], in [4] and in assay [4] (setting [13]) was > 1000 nM throughout. Besides, the “activity at the CG-17 clone” value in assay [1] was “inactive”. The “effect on [3H]GR113808 binding” value in assay [5] and in [6] was “no effect” each time.
`COc1cc(N)c(Cl)cc1C(=O)NC1CCN(CCCOc2ccc(F)cc2)CC1OC` (centres unmarked) [Cisapride, cisapride]: the “agonist / antagonist character” value in [2] (CG-7, cAMP response) is given as “partial agonists”; in assay [3] (CG-8, cAMP response) it was “partial agonists”. The “I. A. (intrinsic activity)” value in [2] is on record as 1.2; in [3] it was 1.4. Further, in assay [2] (setting [11]), the “times less potent than 5-HT” value is “about 10 fold”. Moreover, the EC50 came out at 191 ± 26 nM in assay [2] (setting [16]) and 413 ± 199 nM in assay [3] (setting [17]). Also, the Ki was 10.9 ± 0.3 nM in assay [4] (setting [13]); 11 ± 0.3 nM in assay [4] (setting [14]); 84 nM in assay [6] (setting [18]); 2.7 nM in assay [6] (CG-8, [3H]GR113808, read-out: KH (affinity for the high affinity state)); 105 nM in [6] (read-out: KL (affinity for the low affinity state), CG-8, [3H]GR113808). Moreover, the “BH (percentage of high affinity sites)” value in [6] (CG-8, [3H]GR113808) turned out to be 11%. Also, in assay [6] (CG-8, [3H]GR113808), the “nH (Hill coefficient)” value was “nH = 0.83”.
For the compound `Cn1cc(C(=O)OCC2CCN(CCNS(C)(=O)=O)CC2)c2ccccc21` [GR113808], the “affinity from functional receptor assays” value in [7] is given as “about 0.3 nM”.
Consider `O=C(c1ccc(F)cc1)C1CCN(CCn2c(=O)[nH]c3ccccc3c2=O)CC1` [Ketanserin, ketanserin], for which the “activity at the CG-17 clone” value in assay [1] was “inactive”. Further, the Ki in [1] (read-out: Ki), in assay [4] and in [4] (setting [13]) was > 1000 nM each time. Besides, the “effect on [3H]GR113808 binding” value in assay [5] and in assay [6] was “no effect” throughout.
On to `CNS(=O)(=O)Cc1ccc2[nH]cc(CCN(C)C)c2c1` [Sumatriptan, sumatriptan], for which the “activity at the CG-17 clone” value in assay [1] was “inactive”. In addition, the Ki in assay [1] (read-out: Ki), in assay [4] and in assay [4] (setting [13]) was > 1000 nM each time. Also, the “effect on [3H]GR113808 binding” value in [5] and in assay [6] was “no effect” throughout.
For `Cn1cc(C(=O)OCC2CCN(CCNS(C)(=O)=O)CC2)c2ccccc21` [[^3H]GR113808], the Kd was 0.2 nM in assay [8], 0.23 to 0.37 nM in assay [9] and 0.13 to 0.2 nM in [10].
Turning to `CCN(CC)C(=O)[C@@H]1C=C2c3cccc4[nH]cc(c34)C[C@H]2N(C)C1` [d-LSD], the Ki in assay [5] (setting [15]) and in assay [6] (setting [18]) was > 10000 nM throughout.
Consider `CSc1ccc2c(c1)C(N1CCN(C)CC1)Cc1ccccc1S2` (centres unmarked) [methiothepin], for which the “effect on responses to 5-HT” value in assay [2] and in assay [3] was “not affected” in each case.
`O=C(CCCN1CCC2(CC1)C(=O)NCN2c1ccccc1)c1ccc(F)cc1` [spiperone]: the “effect on responses to 5-HT” value in assay [2] and in assay [3] was “not affected” each time.
On to `CC(N)Cc1c[nH]c2ccc(O)cc12` (stereo not drawn) [α-Me-5-HT], for which the Ki in [1] (human CG-17, 10 nM [3H]5-HT, single experiment, >1,000 from one point displacement at 1 μM, read-out: Ki) was 1.6 nM; in assay [5] (setting [15]), 2260 nM; in [6] (setting [18]), 1860 nM. For the same compound, in assay [1], the “fold higher affinity for the human CG-17 clone” value is “approximately 100 fold”. In addition, the “I. A. (intrinsic activity)” value in [2] turned out to be 0.90; in assay [3] it was 1.0. The “times less potent than 5-HT” value in [2] (setting [11]) was “about 10 fold”. The concentration giving a half-maximal response (EC50) in assay [2] (setting [16]) turned out to be 250 ± 91 nM; in assay [3] (setting [17]), 1040 nM. For the same compound, in assay [3] (setting [12]), the “fold lower affinity than 5-HT” value is “approximately 20 fold”.

The values above are taken from patent US20020081661A1 (Synaptic Pharmaceutical Corporation, priority 1992, published 2002).
